From patent US9718790B2, “Triazine derivative and pharmaceutical composition having an analgesic activity comprising the same” (SHIONOGI & CO., LTD., priority 2010, dated 2017)

How the values were obtained:
CYP3A4 = CYP3A4 (Homo sapiens (Human), UniProt P08684); assay: CYP3A4 fluorescent MBI test; assay type: in vitro ADME; details: substrate 7-BFC, pre-reaction time 0 or 30 minutes
Procedure: The CYP3A4 fluorescent MBI test is a test of investigating enhancement or CYP3A4 inhibition of a compound by a metabolism reaction, and the test was performed using, as CYP3A4 enzyme expressed in Escherichia coli and employlng, as an index, a reaction in which 7-benzyloxytrifluoromethylchmarin (BFC) is debenzylated by the CYP3A4 enzyme to produce a metabolite, 7-hydroxytrifluoromethylchmarin (HFC) emitting fluorescent light.
The reaction conditions were as follows: substrate, 5.6 μmol/L 7-BFC; pre-reaction time, 0 or 30 minutes; reaction time, 15 minutes; reaction temperature, 25° C.
An enzyme in a K-Pi buffer (pH 7.4) and a test drug solution as a pre-reaction. solution were added to a 96-well plate at the composition of the pre-reaction, a part of it was transferred to another 96-well plate so that it was 1/10 diluted by a substrate in a K-Pi buffer, NADPH as a co-factor was added to initiate a reaction as an index (without preincubation) and, after a predetermined time of a reaction, acetonitrile:0.5 mol/L Tris (trishydroxyaminomethane)=4:1 was added to stop the reaction. […] For the plate on which each index reaction had been performed, a fluorescent value of 7-HFC which is a metabolite was measured with a fluorescent plate reader. […]

[1] = system: partial sciatic nerve ligation model in rats; assay: Analgesic effect in a Seltzer model, Evaluation (1): mechanical allodynia, von Frey filaments; assay type: in vivo; details: rat, oral single administration, at 3 hours, read-out: analgesic effect, percent reversal of mechanical allodynia
Source text: Rats were anaesthetized using isoflurane/O2 inhalation anaesthesia. After induction of anesthesia, the left thigh was shaved. An incision was made in the skin just below the hip bone. The muscle was bluntly dissected to expose the sciatic nerve. One third (⅓) to one half (½) of the sciatic nerve thickness was tightly ligated and the wound was closed. The right thigh is used as a sham-operated control. The right thigh undergoes an identical procedure with the left hind limb, however, the sciatic nerve is not manipulated or ligated.
Two weeks after nerve ligation, the effect on mechanical allodynia was assessed using a series of von Frey filaments. For habituation, the rats were placed into a plastic cage on a wire mesh bottom. The mechanical sensitivity (mechanical threshold) of the hind paws was estimated with a series of von Frey filaments (0.4-20 g). The measurement of mechanical sensitivity of the right and left hind paws was performed to obtain predose mechanical sensitivity. The rats showing thee threshold change from 0.6 to 2 g (in nerve ligated side) and 8 to 15 g (in sham operated side) were used in the experiments. On the day belone the experiment, the rats were evaluated with a series of von Frey filaments to familiarize them with the test procedure. The adopted animal was administrated with the test compounds. The test compounds were homogenized with mortar and pestle and suspended or diluted in 0.5% Methyl Cellulose to prepare 0.1-2.0 mg/mL/kg suspension and orally administered to rat using a syringe attached with a sonde. Post-dose mechanical sensitivities of the right and left hind paws were measured at approximately 1 to 5 hours after drug administration. Percent reversal of mechanical allodynia for each rat was calculated using the following formula. The analgesic effects of the compounds were compared.

CYP3A4, sequence (P08684 whole entry): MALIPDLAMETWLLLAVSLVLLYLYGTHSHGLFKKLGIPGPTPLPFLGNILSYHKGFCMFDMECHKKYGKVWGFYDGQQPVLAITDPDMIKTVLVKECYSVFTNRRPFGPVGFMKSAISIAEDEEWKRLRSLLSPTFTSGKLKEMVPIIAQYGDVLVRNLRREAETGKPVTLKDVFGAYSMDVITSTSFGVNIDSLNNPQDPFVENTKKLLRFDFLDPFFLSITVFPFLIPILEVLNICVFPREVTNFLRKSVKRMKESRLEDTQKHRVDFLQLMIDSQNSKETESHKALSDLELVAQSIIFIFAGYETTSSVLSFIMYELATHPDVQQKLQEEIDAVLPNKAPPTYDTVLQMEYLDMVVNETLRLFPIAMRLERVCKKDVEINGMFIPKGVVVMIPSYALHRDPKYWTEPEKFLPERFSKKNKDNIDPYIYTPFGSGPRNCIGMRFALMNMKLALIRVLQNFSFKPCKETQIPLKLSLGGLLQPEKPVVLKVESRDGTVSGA

Row | Structure (SMILES) | IC50 (CYP3A4) [µM] | inhibition in vivo at 3 mg/kg [1] [%]
1 | C[C@@H](Cn1c(=O)[nH]/c(=N\c2ccc(OCC3CC3)cc2)n(Cc2ccc(Cl)cc2)c1=O)C(=O)O [Compound I-0837] | ≤ 3 | 
2 | O=c1[nH]/c(=N\c2ccc(Oc3ccon3)cc2)n(Cc2ccc(Cl)cc2)c(=O)n1CC(CO)CO [Compound I-2291] |  | > 30
